Assay results reported in patent publication US20240417342A1, “METHOD FOR PRODUCING GRANULAR COMPOSITION CONTAINING GLUTATHIONE” (KANEKA CORPORATION, priority 2022, published 2024).
Read-outs that look alike come from different tables or passages of the source.

Test: Solubility in water at 20° C.
Format: physicochemical
Method: Specifically, the percentage can be expressed as the number of grams of the nitrogen-containing fertilizer component that is soluble in 100 ml of water at 20° C.

Structure (SMILES)	solubility in water at 20° C. [g/100 mL]	solubility in water at 20° C. (% = g per 100 ml water) [%]
N[C@@H](Cc1c[nH]cn1)C(=O)O [L-histidine]	4.2	4.2
CC[C@H](C)[C@H](N)C(=O)O [L-isoleucine]	4.0	4.0
NC(=O)NC1NC(=O)NC1=O (stereo not drawn) [allantoin]	0.5	0.5
